Results as given in patent US20220177538A1, “CO-AGONISTS AT GLP-1 AND GIP RECEPTORS SUITABLE FOR ORAL DELIVERY” (Novo Nordisk A/S, priority 2020, published 2022).
Read-outs that look alike come from different tables or passages of the source. Starred links: 1 amine or outer side, 2 acyl side, 3 side chain; linkers in the order of their positions; H or OH if unused. Non-standard residues stand in square brackets, D forms with d. Residues, ends and D or L forms follow the SMILES beside them. Groups on a side chain read outwards from the residue. *: point of attachment. C18 diacid = O=C(O)CCCCCCCCCCCCCCCCC(=O)*; γGlu = O=C(O)[C@H](CCC(=O)[*:2])N[*:1]; εLys = N[C@@H](CCCCN[*:1])C(=O)[*:2]; Aib = CC(C)(N)C(=O)O

What was measured:
[1] = target: human GLP-1 receptor (Homo sapiens, UniProt P43220); test: In vitro functional potency, CRE luciferase reporter, whole BHK cells (hGLP-1R); assay type: cell-based; design: expressed in transfected cells; host or cells: BHK (parent line BHKTS13), clone BHK CRE luc2P hGLP-1R; details: BHK CRE luc2P hGLP-1R cells
Sequence of human GLP-1 receptor (P43220 24-463): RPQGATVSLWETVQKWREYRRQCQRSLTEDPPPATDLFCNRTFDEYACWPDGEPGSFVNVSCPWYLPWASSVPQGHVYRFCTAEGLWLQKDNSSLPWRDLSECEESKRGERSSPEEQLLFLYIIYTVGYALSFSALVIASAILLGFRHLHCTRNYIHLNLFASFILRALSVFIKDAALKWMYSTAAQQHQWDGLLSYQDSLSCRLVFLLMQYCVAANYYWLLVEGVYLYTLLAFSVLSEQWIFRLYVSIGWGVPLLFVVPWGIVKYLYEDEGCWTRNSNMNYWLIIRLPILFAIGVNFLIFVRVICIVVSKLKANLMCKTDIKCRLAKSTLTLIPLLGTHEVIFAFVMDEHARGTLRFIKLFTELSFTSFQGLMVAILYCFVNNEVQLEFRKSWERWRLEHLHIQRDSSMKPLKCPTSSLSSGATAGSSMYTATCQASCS
Procedure, shortened: (§1)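 Potencies are replicate means (n≥2) from non-linear log(agonist) vs response fits of CRE-driven luminescence. Cells were overnight-plated BHK CRE luc2P lines transfected with human GIPR or GLP-1R, 5000/well.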

[2] = target: T1, human GIP receptor (Homo sapiens, UniProt P48546); test: In vitro functional potency, CRE luciferase reporter, whole BHK cells (hGIPR); assay type: cell-based; details: BHK CRE luc2P hGIPR cells
T1 construct: expressed in transfected cells; host or cells: BHK (parent line BHKTS13), clone BHK CRE luc2P hGIPR
T1 sequence (P48546 22-466): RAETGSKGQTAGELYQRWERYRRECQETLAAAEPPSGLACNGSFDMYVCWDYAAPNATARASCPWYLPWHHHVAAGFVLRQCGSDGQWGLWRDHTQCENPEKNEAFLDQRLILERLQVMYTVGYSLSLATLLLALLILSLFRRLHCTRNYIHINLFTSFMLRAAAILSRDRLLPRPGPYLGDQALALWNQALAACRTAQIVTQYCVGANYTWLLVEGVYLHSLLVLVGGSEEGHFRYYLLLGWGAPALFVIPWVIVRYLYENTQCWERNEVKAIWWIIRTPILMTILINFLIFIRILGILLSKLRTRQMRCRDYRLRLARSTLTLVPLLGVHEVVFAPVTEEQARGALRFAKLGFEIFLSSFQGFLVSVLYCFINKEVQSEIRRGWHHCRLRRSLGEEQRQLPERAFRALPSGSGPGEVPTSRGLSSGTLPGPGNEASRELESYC
Procedure, shortened: as §1

[3] = 0% HSA, read-out: hGLP-1R, CRE Luc 0% HSA EC50
[4] = hGLP-1R, CRE Luc 1% HSA EC50, 1% HSA
[5] = 0% HSA, read-out: hGIPR, CRE Luc 0% HSA EC50
[6] = hGIPR, CRE Luc 1% HSA EC50, 1% HSA

| SMILES | EC50 [1, 3] | EC50 [1, 4] | EC50 [2, 5] | EC50 [2, 6] |
| --- | --- | --- | --- | --- |
| CC[C@H](C)[C@H](NC(=O)[C@H](Cc1ccccc1)NC(=O)[C@H](CCC(=O)O)NC(=O)[C@H](CCCNC(=N)N)NC(=O)[C@H](C)NC(=O)[C@H](C)NC(=O)[C@H](CCC(N)=O)NC(=O)[C@H](CCCCNC(=O)[C@@H](N)CCCCNC(=O)[C@@H](N)CCCCNC(=O)CC[C@H](NC(=O)CCCCCCCCCCCCCCCCC(=O)O)C(=O)O)NC(=O)[C@H](CCC(=O)O)NC(=O)[C@H](CC(C)C)NC(=O)[C@@H](NC(=O)[C@@H](NC(=O)[C@H](CO)NC(=O)[C@H](Cc1ccc(O)cc1)NC(=O)[C@H](CC(=O)O)NC(=O)[C@H](CO)NC(=O)[C@@H](NC(=O)[C@H](Cc1ccccc1)NC(=O)[C@@H](NC(=O)CNC(=O)[C@H](CCC(=O)O)NC(=O)C(C)(C)NC(=O)[C@@H](N)Cc1ccc(O)cc1)[C@@H](C)O)[C@@H](C)O)[C@@H](C)CC)[C@@H](C)CC)C(=O)N[C@@H](CC(N)=O)C(=O)N[C@@H](Cc1c[nH]c2ccccc12)C(=O)N[C@@H](CC(C)C)C(=O)N[C@@H](CC(C)C)C(=O)N[C@@H](C)C(=O)NCC(=O)NCC(=O)N1CCC[C@H]1C(=O)N[C@@H](CO)C(=O)N[C@@H](CO)C(=O)NCC(=O)N[C@@H](C)C(=O)N1CCC[C@H]1C(=O)N1CCC[C@H]1C(=O)N1CCC[C@H]1C(=O)N[C@@H](CO)C(=O)O [Compound 34] (H-Y[Aib]EGTFTSDYSIILEK([εLys-εLys-γGlu-C18 diacid])QAAREFINWLLAGGPSSGAPPPS-OH) | 0.006 nM | 0.186 nM | 0.0083 nM | 0.213 nM |
| CC[C@H](C)[C@H](NC(=O)[C@H](Cc1ccccc1)NC(=O)[C@H](CCC(=O)O)NC(=O)[C@H](CCCNC(=N)N)NC(=O)[C@H](C)NC(=O)[C@H](C)NC(=O)[C@H](CCC(N)=O)NC(=O)[C@H](CCC(=O)O)NC(=O)[C@H](CCC(=O)O)NC(=O)[C@H](CC(C)C)NC(=O)[C@H](Cc1ccc(O)cc1)NC(=O)[C@@H](NC(=O)[C@H](CO)NC(=O)[C@H](Cc1ccc(O)cc1)NC(=O)[C@H](CC(=O)O)NC(=O)[C@H](CO)NC(=O)[C@@H](NC(=O)[C@H](Cc1ccccc1)NC(=O)[C@@H](NC(=O)CNC(=O)[C@H](CCC(=O)O)NC(=O)C(C)(C)NC(=O)[C@@H](N)Cc1ccc(O)cc1)[C@@H](C)O)[C@@H](C)O)[C@@H](C)CC)C(=O)N[C@@H](CC(N)=O)C(=O)N[C@@H](Cc1c[nH]c2ccccc12)C(=O)N[C@@H](CC(C)C)C(=O)N[C@@H](CC(C)C)C(=O)N[C@@H](C)C(=O)NCC(=O)NCC(=O)N1CCC[C@H]1C(=O)N[C@@H](CO)C(=O)N[C@@H](CCCCNC(=O)[C@@H](N)CCCCNC(=O)[C@@H](N)CCCCNC(=O)CC[C@H](NC(=O)CCCCCCCCCCCCCCCCC(=O)O)C(=O)O)C(=O)NCC(=O)N[C@@H](C)C(=O)N1CCC[C@H]1C(=O)N1CCC[C@H]1C(=O)N1CCC[C@H]1C(=O)N[C@@H](CO)C(=O)O [Compound 42] (H-Y[Aib]EGTFTSDYSIYLEEQAAREFINWLLAGGPSK([εLys-εLys-γGlu-C18 diacid])GAPPPS-OH) | 0.0023 nM | 0.0835 nM | 0.0059 nM | 0.306 nM |
